{"source": "patent US20110105397A1", "about": "“METHOD FOR TREATING HEART FAILURE WITH STRESSCOPIN-LIKE PEPTIDES” (priority 2009, published 2011)", "key": {"[1]": {"assay": "Nonclinical pharmacokinetics in cynomolgus monkeys", "conditions": "cynomolgus monkey, in vivo", "description": "A sandwich immunoassay was developed using an affinity purified goat polyclonal antibody, specific to h-SCP that was pre-coated onto a microplate with integrated electrodes. h-SCP molecules present in the sample will bind to the capture polyclonal antibody coated on the plate. After washing away any unbound substances, a sulfo-tagged mouse monoclonal anti-h-SCP antibody was added. This conjugated antibody will bind to the h-SCP molecules captured on the microplate and the quantity of analyte was determined by electrochemiluminescence. The amount of signal generated is directly proportional to the h-SCP concentration in the sample or standard. The standard curve range is 3.125-1600 pg/mL with a quantifiable range from 10-800 pg/mL. A sample volume of 25 μL (in duplicate) is required for this assay. This immunoassay is specific for human and dog stresscopin and human urocortin III (h-UCN3). […] After completion of the analysis, based on a comparison of reference standards between the ELISA and HPLC method, a correction factor of 1.57 was applied to all bioanalytical data.\nThe nonclinical pharmacokinetics of h-SCP (SEQ ID NO:1) and pegylated stresscopin-like peptides were studied in rats, dogs, and cynomolgus monkeys (cyno). Nonclinical pharmacokinetic studies focused on characterization of IV infusion at pharmacologically relevant dose levels, supplemented with IV and SC bolus and toxicokinetic analysis."}, "[2]": {"assay": "Human pharmacokinetics, healthy subjects, 24- or 72-hour infusion of 54 ng/kg/min", "conditions": "in vivo; for Vd: Vss; for Tmax: median", "description": "In healthy subjects following a 24- or 72-hour infusion of 54 ng/kg/min of h-SCP (SEQ ID NO:1) noncompartmental pharmacokinetic analyses were performed on plasma concentrations of h-SCP (SEQ ID NO:1)."}, "[3]": {"conditions": "female, cyno IV infusion 3 hours, F, 16.7 ng/kg/min"}, "[4]": {"conditions": "female, cyno IV infusion 3 hours, F, 33.3 ng/kg/min"}, "[5]": {"conditions": "female, cyno IV infusion 3 hours, F, 100 ng/kg/min"}, "[6]": {"conditions": "male, cyno IV infusion 3 hours, M, 16.7 ng/kg/min"}, "[7]": {"conditions": "male, cyno IV infusion 3 hours, M, 33.3 ng/kg/min"}, "[8]": {"conditions": "male, cyno IV infusion 3 hours, M, 100 ng/kg/min"}, "[9]": {"conditions": "male, 54 ng/kg, healthy subjects, 54 ng/kg/min, 24 Hours Male, mean, N = 7"}, "[10]": {"conditions": "male, 54 ng/kg, healthy subjects, 54 ng/kg/min, 72 Hours Male, mean, N = 7"}}, "data": [{"substance": "H-TKFTLSLDVPTNIMNLLFNIAKAKNLRAQAAANAHLMAQI-NH2 [SEQ ID NO: 1, TKFTLSLDVPTNIMNLLFNIAKAKNLRAQAAANAHLMAQI-NH2]", "values": [{"measurement": "time to apparent steady-state plasma concentration after initiation of infusion", "setting": "[1]; iv", "result": "≤ 1", "unit": "h"}, {"measurement": "half-life", "setting": "[1]; monkeys, two-compartment analysis, read-out: alpha-phase half-life (t1/2 alpha)", "result": "< 0.0833", "unit": "h"}, {"measurement": "clearance", "setting": "[1]; cynomolgus monkeys, 16.7 to 100 ng/kg/min, read-out: clearance values (CL)", "result": "1.8 to 2.4", "unit": "L/h/kg"}, {"measurement": "Vss", "setting": "[1]; female, iv", "result": 0.921, "unit": "L/kg"}, {"measurement": "half-life", "setting": "[1]; female, iv, 33.3 ng/kg/min, cyno IV infusion 3 hours, F, 33.3 ng/kg/min, read-out: t1/2 alpha", "result": 0.0667, "unit": "h"}, {"measurement": "half-life", "setting": "[1]; female, iv, 33.3 ng/kg/min, cyno IV infusion 3 hours, F, 33.3 ng/kg/min, read-out: t1/2 terminal", "result": 0.247, "unit": "h"}, {"measurement": "Vd", "setting": "[1]; female, iv, Vss", "result": 0.848, "unit": "L/kg"}, {"measurement": "half-life", "setting": "[1]; female, iv, t1/2 alpha", "result": 0.0517, "unit": "h"}, {"measurement": "AUC(0-inf)", "setting": "[1]; [3]", "result": 1.31, "unit": "ng·h/mL"}, {"measurement": "Cmax", "setting": "[1]; [3]", "result": 0.613, "unit": "ng/mL"}, {"measurement": "clearance", "setting": "[1]; female, cyno IV infusion 3 hours, F, 16.7 ng/kg/min, read-out: CL", "result": 2.38, "unit": "L/h/kg"}, {"measurement": "AUC(0-inf)", "setting": "[1]; [4]", "result": 2.34, "unit": "ng·h/mL"}, {"measurement": "Cmax", "setting": "[1]; [4]", "result": 0.958, "unit": "ng/mL"}, {"measurement": "clearance", "setting": "[1]; female, cyno IV infusion 3 hours, F, 33.3 ng/kg/min, read-out: CL", "result": 2.57, "unit": "L/h/kg"}, {"measurement": "Vd", "setting": "[1]; female, cyno IV infusion 3 hours, F, 33.3 ng/kg/min, read-out: Vss", "result": 0.931, "unit": "L/kg"}, {"measurement": "AUC(0-inf)", "setting": "[1]; [5]", "result": 7.67, "unit": "ng·h/mL"}, {"measurement": "Cmax", "setting": "[1]; [5]", "result": 3.16, "unit": "ng/mL"}, {"measurement": "clearance", "setting": "[1]; female, cyno IV infusion 3 hours, F, 100 ng/kg/min, read-out: CL", "result": 2.35, "unit": "L/h/kg"}, {"measurement": "Vss", "setting": "[1]; male, iv", "result": 0.899, "unit": "L/kg"}, {"measurement": "half-life", "setting": "[1]; male, iv, 33.3 ng/kg/min, cyno IV infusion 3 hours, M, 33.3 ng/kg/min, read-out: t1/2 alpha", "result": 0.0617, "unit": "h"}, {"measurement": "half-life", "setting": "[1]; male, iv, 33.3 ng/kg/min, cyno IV infusion 3 hours, M, 33.3 ng/kg/min, read-out: t1/2 terminal", "result": 0.433, "unit": "h"}, {"measurement": "Vd", "setting": "[1]; male, iv, Vss", "result": 0.788, "unit": "L/kg"}, {"measurement": "half-life", "setting": "[1]; male, iv, t1/2 alpha", "result": 0.0483, "unit": "h"}, {"measurement": "AUC(0-inf)", "setting": "[1]; [6]", "result": 1.73, "unit": "ng·h/mL"}, {"measurement": "Cmax", "setting": "[1]; [6]", "result": 0.873, "unit": "ng/mL"}, {"measurement": "clearance", "setting": "[1]; male, cyno IV infusion 3 hours, M, 16.7 ng/kg/min, read-out: CL", "result": 1.81, "unit": "L/h/kg"}, {"measurement": "AUC(0-inf)", "setting": "[1]; [7]", "result": 3.47, "unit": "ng·h/mL"}, {"measurement": "Cmax", "setting": "[1]; [7]", "result": 1.48, "unit": "ng/mL"}, {"measurement": "clearance", "setting": "[1]; male, cyno IV infusion 3 hours, M, 33.3 ng/kg/min, read-out: CL", "result": 1.75, "unit": "L/h/kg"}, {"measurement": "Vd", "setting": "[1]; male, cyno IV infusion 3 hours, M, 33.3 ng/kg/min, read-out: Vss", "result": 0.611, "unit": "L/kg"}, {"measurement": "AUC(0-inf)", "setting": "[1]; [8]", "result": 9.79, "unit": "ng·h/mL"}, {"measurement": "Cmax", "setting": "[1]; [8]", "result": 4.45, "unit": "ng/mL"}, {"measurement": "clearance", "setting": "[1]; male, cyno IV infusion 3 hours, M, 100 ng/kg/min, read-out: CL", "result": 1.84, "unit": "L/h/kg"}, {"measurement": "half-life", "setting": "[2]; female, 54 ng/kg, T1/2", "result": 23.4, "unit": "h"}, {"measurement": "half-life", "setting": "[2]; female, 54 ng/kg, T1/2, effective", "result": 5.84, "unit": "h"}, {"measurement": "Vd", "setting": "[2]; female, 54 ng/kg", "result": 2.72, "unit": "L/kg"}, {"measurement": "AUC(0-inf)", "setting": "[2]; female, 54 ng/kg, healthy subjects, 54 ng/kg/min, 72 Hours Female, mean, N = 5", "result": 740, "unit": "ng·h/mL"}, {"measurement": "Cmax", "setting": "[2]; female, 54 ng/kg, healthy subjects, 54 ng/kg/min, 72 Hours Female, mean, N = 6", "result": 11.5, "unit": "ng/mL"}, {"measurement": "clearance", "setting": "[2]; female, 54 ng/kg, healthy subjects, 54 ng/kg/min, 72 Hours Female, mean, N = 6, read-out: CL (converted)", "result": 0.33, "unit": "L/h/kg"}, {"measurement": "Tmax", "setting": "[2]; female, 54 ng/kg, healthy subjects, 54 ng/kg/min, 72 Hours Female, N = 6", "result": 18, "unit": "h"}, {"measurement": "half-life", "setting": "[2]; 54 ng/kg/min, healthy subjects, 24- or 72-hour infusion of 54 ng/kg/min, read-out: Mean terminal half-life", "result": "23.4 to 28.8", "unit": "h"}, {"measurement": "half-life", "setting": "[2]; 54 ng/kg/min, healthy subjects, 24- or 72-hour infusion of 54 ng/kg/min, read-out: effective half-life", "result": "5.84 to 9.62", "unit": "h"}, {"measurement": "clearance", "setting": "[2]; 54 ng/kg/min, healthy subjects, 24- or 72-hour infusion of 54 ng/kg/min, read-out: mean clearance", "result": "0.28 to 0.38", "unit": "L/h/kg"}, {"measurement": "T1/2", "setting": "[2]; male, 54 ng/kg", "result": 28.81, "unit": "h"}, {"measurement": "T1/2, effective", "setting": "[2]; male, 54 ng/kg", "result": 9.62, "unit": "h"}, {"measurement": "Vss", "setting": "[2]; male, 54 ng/kg", "result": 4.94, "unit": "L/kg"}, {"measurement": "half-life", "setting": "[2]; male, 54 ng/kg, T1/2", "result": 25.7, "unit": "h"}, {"measurement": "half-life", "setting": "[2]; male, 54 ng/kg, T1/2, effective", "result": 9.37, "unit": "h"}, {"measurement": "Vd", "setting": "[2]; male, 54 ng/kg", "result": 3.7, "unit": "L/kg"}, {"measurement": "AUC(0-inf)", "setting": "[2]; [9]", "result": 283, "unit": "ng·h/mL"}, {"measurement": "Cmax", "setting": "[2]; [9]", "result": 12.2, "unit": "ng/mL"}, {"measurement": "clearance", "setting": "[2]; male, 54 ng/kg, healthy subjects, 54 ng/kg/min, 24 Hours Male, mean, N = 7, read-out: CL (converted)", "result": 0.28, "unit": "L/h/kg"}, {"measurement": "Tmax", "setting": "[2]; male, 54 ng/kg, healthy subjects, 54 ng/kg/min, 24 Hours Male, N = 7", "result": 16, "unit": "h"}, {"measurement": "AUC(0-inf)", "setting": "[2]; [10]", "result": 632, "unit": "ng·h/mL"}, {"measurement": "Cmax", "setting": "[2]; [10]", "result": 10.2, "unit": "ng/mL"}, {"measurement": "clearance", "setting": "[2]; male, 54 ng/kg, healthy subjects, 54 ng/kg/min, 72 Hours Male, mean, N = 7, read-out: CL (converted)", "result": 0.38, "unit": "L/h/kg"}, {"measurement": "Tmax", "setting": "[2]; male, 54 ng/kg, healthy subjects, 54 ng/kg/min, 72 Hours Male, N = 7", "result": 24, "unit": "h"}]}]}
